Measurements taken from PubChem BioAssay (NCI).
Values joined by “and” are separate entries in the source; they are usually repeats but may differ in a detail not shown here. Equal values may be shown once.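 All cell lines were grown in 96-well plates and treated with compound for 48 hours. Abbreviation: GI50, concentration required for 50% inhibition of growth. TGI: total growth inhibition.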

Tests used:
Test in all cases: NCI-60 cell line screen, 48 h
LOX IMVI melanoma = test system: LOX IMVI melanoma
XF 498 CNS = test system: XF 498 CNS
COLO 205 colon = test system: COLO 205 colon
SF-295 CNS = test system: SF-295 CNS
HOP-62 NSCLC = test system: HOP-62 NSCLC
LXFL 529 NSCLC = test system: LXFL 529 NSCLC
RPMI-8226 leukemia = test system: RPMI-8226 leukemia
M19-MEL melanoma = test system: M19-MEL melanoma
DLD-1 colon = test system: DLD-1 colon
CCRF-CEM leukemia = test system: CCRF-CEM leukemia
BT-549 breast = test system: BT-549 breast

SMILES	TGI (LOX IMVI melanoma)	TGI (XF 498 CNS) [µM]	TGI (COLO 205 colon)	TGI (SF-295 CNS)	TGI (HOP-62 NSCLC) [µM]	TGI (LXFL 529 NSCLC) [µM]	TGI (RPMI-8226 leukemia)	TGI (M19-MEL melanoma) [µM]	TGI (DLD-1 colon) [µM]	TGI (CCRF-CEM leukemia)	GI50 (CCRF-CEM leukemia) [nM]	GI50 (COLO 205 colon)	GI50 (SF-295 CNS) [nM]	GI50 (HOP-62 NSCLC) [nM]	GI50 (BT-549 breast) [nM]	TGI (BT-549 breast) [µM]	GI50 (RPMI-8226 leukemia)	GI50 (M19-MEL melanoma) [µM]	GI50 (DLD-1 colon) [µM]	GI50 (LOX IMVI melanoma) [nM]
Cc1ccccc1NC(=O)CC(=O)NNCC(=O)Nc1nnc(-c2ccccc2)s1	> 100 µM	> 100	> 100 µM	> 100 µM	> 100	> 100	75.1 µM	> 100	> 100											
CCC12C=C(C(=O)OC)N3c4ccccc4C4CCN(CCC1)C2C43 (centres undefined)	> 100 µM		> 100 µM	> 100 µM	99.8	> 100	> 100 µM	> 100	> 100	> 100 µM										
CCCCC(C(=O)C(=O)Nc1ccccc1CC)C(=O)C(C)C (centres undefined)	> 100 µM	> 100	> 100 µM	> 100 µM		> 100	> 100 µM	> 100	> 100	> 100 µM										
O=C1NC(=O)C2C3C=CC(C12)C1C2C(=O)NC(=O)C2C31 (centres undefined)	> 85.7 µM and 250 µM and > 1000 µM	244	198 µM and > 892 µM	199 µM and > 1000 µM			203 µM and > 1000 µM	250	250	250 µM and > 1000 µM	237000	> 62600 nM and 108000 nM	827000	> 644000	313000	> 1000	> 76600 nM and 577000 nM	98.2	39	
ON1CCc2c([nH]c3ccccc23)C1c1ccc(Cl)cc1 (centres undefined)	37.4 µM	57.6	80.8 µM	91 µM	> 100	> 100	84.3 µM	> 100	> 100	93.8 µM										
CN(C)c1ccc(/C=C2\CCc3ccccc3C2=O)cc1Br	> 100 µM	> 100	> 100 µM	> 100 µM	> 100	> 100	72.9 µM	> 100	> 100	> 100 µM										
Nc1ccccc1C(=O)/C=C/c1ccccc1O	> 100 µM	> 100	> 100 µM	> 100 µM	> 100	> 100	78.4 µM	> 100	> 100	> 100 µM										
COC(=O)C1CC(=O)O[C@H]1c1ccc(OC)c(OC)c1 (some centres undefined)	> 100 µM	> 100	> 100 µM	> 100 µM	> 100	> 100	> 100 µM	> 100	> 100	> 100 µM										
CN(C)c1ccc(/C=c2/sc3nc(=O)c(-c4ccccc4NC(=O)C(F)(F)F)nn3c2=O)cc1	> 100 µM	> 100	> 100 µM	> 100 µM	> 100	> 100		> 100	> 100	> 100 µM										
O/N=C1/C(=C/c2ccc(OCc3ccccc3)cc2)CCCC1C(NO)c1ccc(OCc2ccccc2)cc1 (centres undefined)	24.5 µM		> 100 µM		> 100	> 100		> 100	> 100	> 100 µM										
CC(=O)NC(CCCNC(=O)OCc1ccccc1)C(=O)NCc1ccccc1 (centres undefined)	> 100 µM	> 100	> 100 µM	> 100 µM	> 100	> 100	> 100 µM	> 100	> 100	> 100 µM										
O=[N+]([O-])c1ccc(/C=C/c2ccc(/C=C/c3ccc([N+](=O)[O-])cc3[N+](=O)[O-])cc2)c([N+](=O)[O-])c1		> 100		> 100 µM	> 100	> 100	> 100 µM		> 100	> 100 µM										
CCOC(OCC)(OCC)C(Br)CC (centres undefined)	> 100 µM	> 100	> 100 µM	> 100 µM	> 100	> 100	47.5 µM	> 100	> 100	> 100 µM										
O=C(CC1(O)C(=O)Nc2c(Cl)ccc(Cl)c21)c1ccc(Cl)cc1 (centres undefined)	37.3 µM	39.9	32.8 µM	83.4 µM	> 100	88.9	55.1 µM	33.3	> 100											
N#Cc1c(CC(=O)O)cc(=O)n2c1[nH]c1ccccc12	> 100 µM		> 100 µM	> 100 µM	> 100		> 100 µM	> 100	> 100											
CNS(=O)(=O)NNS(=O)(=O)c1ccc(C)cc1			> 100 µM	> 100 µM	> 100		> 100 µM	> 100	> 100	> 100 µM										
COC1=CC(=O)C(O)=C(CC2(C)C(C)CCC3(C)C2CCCC3(C)C)C1=O (centres undefined)	23.2 µM	22.4	19.2 µM	16.3 µM	10.7	22.7	90.1 µM	7.07	45.1	11.5 µM										
C/C(=C\c1ccccc1)C(O)C(=O)c1nc2ccc(Cl)cc2[nH]c1=O (centres undefined)	> 100 µM	> 100	> 100 µM	> 100 µM	> 100	> 100	> 100 µM	> 100	> 100	78.9 µM										
CC1(C)CC(=O)C(C(=O)Nc2cccs2)=C(O)C1	> 100 µM	82.7	33.7 µM	> 100 µM	> 100	> 100	> 100 µM	> 100	> 100	95.3 µM										
CN(C)c1ccc(/C=N/N=C(\C#N)[S][Sn]([Cl])([c]2ccccc2)[c]2ccccc2)cc1	2.31 µM		3.52 µM	5.48 µM	6.02		5.15 µM			1.05 µM	281	1640 nM	2290	2630	1570	3.04	1430 nM			1040

SMILES	TGI (LOX IMVI melanoma)	TGI (XF 498 CNS) [µM]	TGI (COLO 205 colon)	TGI (SF-295 CNS)	TGI (HOP-62 NSCLC) [µM]	TGI (LXFL 529 NSCLC) [µM]	TGI (RPMI-8226 leukemia)	TGI (M19-MEL melanoma) [µM]	TGI (DLD-1 colon) [µM]	TGI (CCRF-CEM leukemia)	GI50 (CCRF-CEM leukemia) [nM]	GI50 (COLO 205 colon)	GI50 (SF-295 CNS) [nM]	GI50 (HOP-62 NSCLC) [nM]	GI50 (BT-549 breast) [nM]	TGI (BT-549 breast) [µM]	GI50 (RPMI-8226 leukemia)	GI50 (M19-MEL melanoma) [µM]	GI50 (DLD-1 colon) [µM]	GI50 (LOX IMVI melanoma) [nM]
N#CC1=C(N)Oc2c(ccc3ccccc23)C1c1cc2ccccc2n2nnnc12 (centres undefined)	> 100 µM		7.32 µM	> 100 µM	> 100		> 100 µM			> 100 µM	739	2690 nM	832	812	1610	> 100	927 nM			966
Oc1c(Br)cc(Cl)cc1C(c1cc(Cl)cc(Br)c1O)C(Cl)(Cl)Cl	11.4 µM		3.51 µM	5.29 µM	9.16		6.47 µM			9.71 µM	996	1870 nM	1590	3020	3220	10.1	961 nM			2970
CCCCCNC(=O)CCCCCCCCCCCNC(=O)CCCCCCCCCCN1C=CC(=CC=C2C=CC(=O)C=C2)C=C1	> 100 µM	> 100	28.6 µM	> 100 µM	> 100	> 100	> 100 µM	> 100	> 100	> 100 µM										
COc1ccc2cc3n(c(=O)c2c1)CCc1c-3cc(OC)c(OC)c1OC		> 100	> 100 µM	> 100 µM	> 100	> 100	> 100 µM	> 100	> 100	> 100 µM										
COc1ccc(C(C)Nc2cc(OC)c(OC)c(OC)c2)cc1 (centres undefined)	> 92.6 µM	> 26.4	7.78 µM	7.53 µM	> 83.2	> 100	> 100 µM	> 100	> 100	> 100 µM										
O=C1NC(=O)N(S(=O)(=O)c2cc(C(=O)Nc3ccc(Cl)cc3)c(Cl)cc2S)S(=O)(=O)N1	34.3 µM		> 100 µM	43.1 µM	37.4		55.7 µM			26.9 µM	8530	11000 nM	23400	18300	20500	45.7	17700 nM			17000
Cn1cc(-c2ccc3c(c2)ncn3-c2cc(NS(=O)(=O)C3CC3)cc(-c3ccc(F)cc3F)c2)cn1	42 µM		> 100 µM	37.2 µM	> 100		32.2 µM			> 100 µM	7500	24800 nM	8180	14100	4220	56.7	3970 nM			5750
O=C1c2ccccc2C2(O)N(c3ccccc3)C(=S)N(c3ccccc3)C12O (centres undefined)	> 100 µM		> 100 µM	> 100 µM	> 100	> 100	> 100 µM	> 100	> 100	> 100 µM										
Nc1cc(C(F)(F)F)c(-c2nc(N3CCOCC3)nc(N3CCOCC3)n2)cn1	> 35.1 µM		10 µM	1.75 µM	16.2		> 75.9 µM			> 100 µM	2970	265 nM	226	643	265	3.84	709 nM			
CN(C)CCNC(=O)c1cccc2c1nc(-c1cccnc1)c1ccccc12	12.6 µM		16.4 µM	20.1 µM	22.3			18.5	21.2	43.5 µM										
COc1ccc(-n2c(=O)c3ccccc3n(Cc3ccc(C(=O)NO)cc3)c2=O)cc1	3.24 µM		4.22 µM	3.54 µM	6.19		12.6 µM			> 100 µM	2800	1750 nM	1810	2290	2080	4.91	2420 nM			1760
O=c1c2cc(Br)ccc2nc(CNc2ccccc2)n1-c1ccccc1	19.6 µM	29.1	31.2 µM	> 58 µM	> 60.6	36.9	> 54.9 µM	29.7	21.6	13.7 µM										
CC1=C(C(=O)Nc2ccc3[nH]ncc3c2)C(c2ccc(F)cc2)N=C(c2ccc(C(F)(F)F)nc2)N1 (centres undefined)	> 25 µM		> 25 µM	> 25 µM	> 25		> 25 µM			> 25 µM	17000	> 25000 nM	9810	10100	5280	18.2	20000 nM			8880
CN1S(=O)(=O)N(C)P12(N=P(CP(=NP13(N(C)S(=O)(=O)N1C)N(C)S(=O)(=O)N3C)(c1ccccc1)c1ccccc1)(c1ccccc1)c1ccccc1)N(C)S(=O)(=O)N2C	> 100 µM	> 100	> 100 µM		> 100	> 100	> 100 µM	> 100	> 100	> 100 µM										
CC(C)(C)C1CC[C@H]2c3c([nH]c4ccccc34)[C@H]3C(=O)N(c4ccc(F)cc4)C(=O)[C@H]3[C@H]2C1 (some centres undefined)	35.2 µM	32.3	30.4 µM	28.3 µM	30.8	30.7		34.7	37.4	35.5 µM										
N#CC1(CCCCl)CCCCC1	> 100 µM	> 100	> 100 µM	> 100 µM		> 100		> 100	> 100	> 100 µM										
O=S(=O)(Nc1ccccc1)c1ccc(C2CC3(Cl)C(Cl)=C(Cl)C2(Cl)C3(Cl)Cl)cc1 (centres undefined)	3.47 µM		3.48 µM	5.97 µM	5.93		7.28 µM			11.9 µM	3240	1980 nM	2210	2520	2460	5.85	2530 nM			1840
CC1(C)CC2=NO[Se]3=C2C(=NO3)C1	9.39 µM		3.73 µM	7.6 µM	10.8		18.5 µM			30.4 µM						7.28				
O=S(=O)(O)C(c1ccccc1)C(O)c1ccccc1 (centres undefined)	> 100 µM		> 100 µM	> 100 µM	> 100		> 100 µM			> 100 µM						> 100				
C#CCCCCCC(=O)N[C@H]1C=C[C@@H]2/C=C(C)/C=C/[C@@H](C)[C@H]([C@H](C)[C@H](O)[C@@H](C)NC(C)=O)OC(=O)/C=C/C=C(C)\C=C\[C@]2(C)C1	< 0.004 µM		4.06 µM	0.0182 µM	> 40		4.61 µM			> 40 µM	479	4.14 nM	< 4	10.7	< 4	> 40	< 4 nM			< 4
